Source: US20250270180A1, “MEK INHIBITORS AND THERAPEUTIC USES THEREOF” (Immuneering Corporation, priority 2020, published 2025)

Tests used:
A549 pERK = experiment: A549-pERK, 2 h (quantitative Western, Jess); format: cell-based; settings: Homo sapiens, A549, 2 h, phospho:total ratio normalized to DMSO control
Procedure, shortened: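 Cells treated in duplicate for 2 h with compound, lysed and protein-normalised (1 mg/mL pERK, 1.5 mg/mL pMEK). Quantitative capillary Western; phospho/total protein ratio normalised to DMSO.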

[1] = Metabolite ID study, monkey hepatocytes; format: in vitro ADME; settings: 10 uM compound 9, T=60 min
Experimental: (§1) Animal Studies: Compound 9 was tested using six species hepatocytes in a metabolite ID study (T=60 min).
(§2) Cryopreserved hepatocytes from a selected species were thawed and incubated in duplicate with 10 uM compound 9 in Krebs-Henseleit buffer. […] Viability of hepatocytes was >70% after thawing.
(§3) (Eppendorf 5804R). […] The disappearance of the parent compound was determined, and the formation of metabolites was evaluated. Metabolites present at >1% of total compound related material (based on peak area) were identified by interpretation of the LC-MS/MS data.
(§4) MS settings were optimized for the flow rate. Full scan spectra were acquired in combination with data dependent MS2.
(§5) The spectra obtained from all samples were screened for the presence of m/z values that are absent in the blank incubations (incubations with hepatocytes without compound and with vehicle control, and incubations of compound in buffer without hepatocytes). T=60 min incubations were used as an initial screening. All possible metabolites observed were semi-quantified by MS response (peak area). MS2 spectra were interpreted to determine possible location of the metabolism reaction. The presence of metabolites identified was compared across the selected species.

A549 (KRAS-G12S) pERK = experiment: Cell-based pERK dose response study, A549
Experimental: (§6) Materials and Methods: A549 or A375 cells were seeded in 6-well plates at an appropriate seeding density on day 0. On day 2 or 3, after checking the health and confluency of cells, the media was aspirated and replaced with 1 mL media containing a predetermined concentration of compound and incubated for 2 hours. After 2 hours, the media was aspirated, and the cells washed 2 times with cold PBS. Cells were lysed on ice, with 50 uL 1×CST lysis buffer+1 mM PMSF for 5 minutes. After 5 minutes, cells were removed using a scraper and transferred to cold 1.5 mL tubes, and centrifuged for 10 min, 4° C., 14,000×g. Supernatant was gently removed and snap frozen in liquid nitrogen. Protein concentration of the lysate was determined using Bradford Reagent (analyzed using SpectraMax M2E) and diluted to 1 mg/mL or pERK or 1.5 mg/mL for pMEK analysis. […] All dilutions were in Milk-free antibody diluent.

[2] = Metabolite ID study, rat hepatocytes; format: in vitro ADME; settings: 10 uM compound 9, T=60 min
Experimental: as §1, §2, §3, §4, §5

[3] = Metabolite ID study, human hepatocytes; format: in vitro ADME; settings: 10 uM compound 9, T=60 min
Experimental: as §1, §2, §3, §4, §5

[4] = Metabolite ID study, six species hepatocytes; format: in vitro ADME; settings: hepatocyte incubations, T=60 min
Experimental: as §1, §2, §3, §5
Primary metabolite shown for each species in bold font. Several masses found were also present in incubations with compound in buffer and were considered not to be metabolites.

[5] = Metabolite ID study, mouse hepatocytes; format: in vitro ADME; settings: 10 uM compound 9, T=60 min
Experimental: as §1, §2, §3, §4, §5

hERG Channel = hERG Channel (Homo sapiens, UniProt Q12809); experiment: in vitro
[6] = Single dose PK profile (plasma and tumor) in Colon26 tumor bearing mice; format: in vivo; settings: female, mouse
Experimental: Female mice (either athymic BALC/c nude, or BALB/c mice) were inoculated with a single subcutaneous injection of 0.1 ml of mouse Colon-26 cell suspension (1×10^5 cells per animal) in the right flank region. Colon26 (C26) tumor bearing mice received a single dose (3-4 mice/treatment) of vehicle (10% DMSO/90% [20% SBE-B-CD in saline], pH 5) containing compounds at indicated dose by gavage (p.o.) or intravenous administration (i.v.) and at various time points (0.16, 0.5, 1, 2, 4, 8, 12, 16, 24-hour) post dose humanely euthanized. Blood was obtained through cardiac puncture into K+EDTA tubes, mixed by inversion and centrifuged to obtain the plasma. Tissues were excised, cleaned of surrounding tissues. All samples immediately snap frozen in liquid N2 prior to LC-MS/MS analysis (using Agilent Poroshell-120 EC-C18 (4.0 μm) 2.1×50 mm, and a Water+API-4000 Electrospray MS unit). The results of this study are illustrated in FIGS. 16, and 17. Tables 11 describes a single does PK profile (plasma) and Table 12 describes a single dose PK profile (tumor).

[7] = Human liver microsome stability (t1/2, Clint); format: in vitro ADME; settings: microsomes, pH 7.4, 0.5 mg/ml microsomal protein
A375 pERK:tERK = experiment: Cell-based pERK:tERK, A375
Experimental: as §6

[8] = Metabolite ID study, rabbit hepatocytes; format: in vitro ADME; settings: 10 uM compound 9, T=60 min
Experimental: as §1, §2, §3, §4, §5

[9] = athymic BALB/c nude or BALB/c, iv, 25 mg/kg, plasma, 25 mpk i.v.
[10] = athymic BALB/c nude or BALB/c, po, 25 mg/kg, plasma, 25 mpk p.o.
[11] = athymic BALB/c nude or BALB/c, po, 100 mg/kg, plasma, 100 mpk p.o.
[12] = iv, 25 mg/kg, plasma, 25 mpk i.v.
[13] = iv, 25 mg/kg, tumor, 25 mpk i.v.
[14] = po, 25 mg/kg, plasma, 25 mpk p.o.
[15] = po, 25 mg/kg, tumor, 25 mpk p.o.
[16] = po, 100 mg/kg, plasma, 100 mpk p.o.
[17] = po, 100 mg/kg, tumor, 100 mpk p.o.

hERG Channel, sequence (Q12809 whole entry): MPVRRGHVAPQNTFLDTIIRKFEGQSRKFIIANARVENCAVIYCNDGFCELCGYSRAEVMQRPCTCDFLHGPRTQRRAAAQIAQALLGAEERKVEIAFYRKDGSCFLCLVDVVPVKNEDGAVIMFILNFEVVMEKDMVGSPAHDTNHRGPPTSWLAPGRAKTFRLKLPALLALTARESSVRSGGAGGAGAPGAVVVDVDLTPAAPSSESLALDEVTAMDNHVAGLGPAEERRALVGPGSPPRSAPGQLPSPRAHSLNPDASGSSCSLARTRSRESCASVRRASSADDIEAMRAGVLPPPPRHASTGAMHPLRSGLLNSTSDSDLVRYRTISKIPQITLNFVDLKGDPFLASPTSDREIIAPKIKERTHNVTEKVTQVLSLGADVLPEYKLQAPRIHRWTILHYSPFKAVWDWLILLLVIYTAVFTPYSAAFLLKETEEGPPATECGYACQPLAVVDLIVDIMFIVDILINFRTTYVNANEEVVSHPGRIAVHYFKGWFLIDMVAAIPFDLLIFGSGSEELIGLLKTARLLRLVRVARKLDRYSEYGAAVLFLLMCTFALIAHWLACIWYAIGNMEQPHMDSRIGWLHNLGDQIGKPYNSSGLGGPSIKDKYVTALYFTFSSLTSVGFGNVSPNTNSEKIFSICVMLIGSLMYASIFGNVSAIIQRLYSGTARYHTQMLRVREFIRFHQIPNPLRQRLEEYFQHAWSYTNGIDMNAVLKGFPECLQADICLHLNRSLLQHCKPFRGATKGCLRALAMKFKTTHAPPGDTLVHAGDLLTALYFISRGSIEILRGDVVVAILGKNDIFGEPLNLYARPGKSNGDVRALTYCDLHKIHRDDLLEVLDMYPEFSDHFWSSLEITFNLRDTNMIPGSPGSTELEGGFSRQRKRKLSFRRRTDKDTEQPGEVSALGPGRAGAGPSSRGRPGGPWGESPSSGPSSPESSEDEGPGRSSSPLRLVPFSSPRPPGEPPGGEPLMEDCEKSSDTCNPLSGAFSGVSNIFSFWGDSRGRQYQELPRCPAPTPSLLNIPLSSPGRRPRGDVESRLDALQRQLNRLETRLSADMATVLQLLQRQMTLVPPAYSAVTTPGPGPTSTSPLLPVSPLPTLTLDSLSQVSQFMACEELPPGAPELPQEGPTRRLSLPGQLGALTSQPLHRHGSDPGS

## CNS(=O)(=O)Nc1cccc(Cc2c(CN(C)C)c3ccc(OC(=O)N(C)C)cc3oc2=O)c1F [Compound 9]
A549 pERK; 10 nM
  activity at 0.01 µM: 63%
A549 pERK; 10 uM
  activity at 10 µM: 1.21%
[1]
  % of total compound related material based on peak area, Monkey: 95%
A549 (KRAS-G12S) pERK; 10 nM, 2 hr
  A549 pERK:tERK ratio [10 nM; 2 hr]: 0.62
A549 (KRAS-G12S) pERK; Homo sapiens, A549, 12-point dose, 2 hours
  IC50: 0.0198 µM
[2]
  % of total compound related material based on peak area, Rat: 95%
[3]
  % of total compound related material based on peak area, Human: 99%
[4]
  extent of metabolism in hepatocytes from different species: not extensively metabolized
[5]
  % of total compound related material based on peak area, Mouse: 97%
hERG Channel
  IC50: 26.2 µM
[6]; [9]
  Tmax: 30 min
  half-life: 37.8 min
[6]; [10]
  bioavailability: 75.6%
  half-life: 79.2 min
[6]; [11]
  bioavailability: 192%
  half-life: 73.2 min
[6]; [12]
  AUC(0-inf): 5810 ng·h/mL
  AUC(0-t): 5810 ng·h/mL
  Cmax: 6520 ng/mL
[6]; [13]
  AUC(0-inf): 8290 ng·h/mL
  AUC(0-t): 8280 ng·h/mL
  Cmax: 7790 ng/mL
  Tmax: 30 min
  half-life: 208 min
[6]; [14]
  AUC(0-inf): 4400 ng·h/mL
  AUC(0-t): 4390 ng·h/mL
  Cmax: 4640 ng/mL
  Tmax: 30 min
[6]; [15]
  AUC(0-inf): 4900 ng·h/mL
  AUC(0-t): 4890 ng·h/mL
  Cmax: 4580 ng/mL
  Tmax: 30 min
  bioavailability: 59.1%
  half-life: 76.8 min
[6]; [16]
  AUC(0-inf): 44600 ng·h/mL
  AUC(0-t): 44500 ng·h/mL
  Cmax: 30100 ng/mL
  Tmax: 30 min
[6]; [17]
  AUC(0-inf): 51700 ng·h/mL
  AUC(0-t): 51700 ng·h/mL
  Cmax: 30300 ng/mL
  Tmax: 30 min
  bioavailability: 156%
  half-life: 118 min
[7]
  half-life at 1 uM: 35 min
  microsomal CLint at 1 uM: 40 µL/min/mg
A375 pERK:tERK
  A375 pERK:tERK ratio [10 nM; 2 hr]: 0.71
[8]
  % of total compound related material based on peak area, Rabbit: 93%
